Assay results published in patent US11229611B2, “Clobazam transdermal delivery system and uses thereof” (TAHO Pharmaceuticals Ltd., priority 2020, dated 2022).
In brackets after ≈: the same amount, converted by molar mass.

Columns and labels:
[1] = solubility and compatibility of clobazam in a variety of excipients; assay type: physicochemical
Procedure: Solubility and compatibility of clobazam were tested in a variety of excipients according to the following functions: (1) alcohols; (2) emollients/oils; (3) esters; (4) fatty acids; (5) fatty acid esters; (6) fatty alcohols; (7) solubilizers; (8) solvents; and (9) surfactants.

[2] = test system: isolated human cadaver epidermis; assay: flux through skin of EVA/PIB multilaminate formulations; assay type: in vitro ADME
Excerpt: In certain embodiments, the adhesive composition contains the HMW and LMW PIB in weight ratios (HMW PIB: LMW PIB) in the range of about 3-40:97-60, in the range of about 5-25:95-75 and in the range of about 10-20:90-80. The ratio of HMW PIE to LMW PIE that provides an optimal adhesive for a specific drug agent will be dependent upon the identity and concentration of agent being delivered. As an example, in one effective embodiment the PIB adhesive includes 5 wt % HMW PIB material (such as OPPANOL L80, LlOO, and L 140 from BASF) and 95 wt % LMW PIB material (Such as OPPANOL BlO, BI 1, B12, and B13 from BASF).
Optionally, modification of flux of the drug through the PIB can be effected by incorporating in the adhesive material such as micronized, crosslinked polyvinylpyrrolidone (PVP), such as CROSPOVIDONE (Kollidon CL-CY from BASF typically with bulk density between 0.2-0.3 g/cm3 and particle size D90 of 10-20 micron). Such PVP improves the permeability of clobazam material through the PIB layer.
Varying the amounts of CROSPOVIDONE in the PIB adhesive would result in fine-tuning the flux of clobazam to desired levels. For example, multilaminate formulations containing different PVP amounts were tested for the effect of such variation on flux through skin. The multilaminate formulations contained 35 wt % of clobazam base in EVA40, an EVA12 as tie layer and PIB adhesive (5:95 L100:B12 PIB) with 12 wt % or 18 wt % PVP were tested. […] A formulation containing 30 wt % clobazam base and 15 wt % PVP was also tested. The flux of clobazam formulation from this formulation was 6.3μg/(cm^2 h). […] PIB polymers are available commercially, e.g., under the tradename VISTANEX™ from Exxon Chemical. The amount of PVP in the resulting adhesive can be about 1 wt % to 30 wt %, about 5 wt % to 25 wt %, about 8 wt % to 20 wt %.
Transdermal flux can be measured with a standard procedure using Franz cells or using an array of formulations. Flux experiments were done on isolated human cadaver epidermis. With Franz cells, in each Franz diffusion cell a disc of epidermis is placed on the receptor compartment. A transdermal delivery system is placed over the diffusion area (1.98 cm^2) in the center of the receptor. The donor compartment is then added and clamped to the assembly. At time 0, receptor solution (between […] and 24 ml, exactly measured) is added into the receptor compartment and the cell maintained at 35° C. This temperature yields a skin surface temperature of 30-32° C. Samples of the receptor compartment are taken periodically to determine the flux through skin and analyzed by HPLC. An alternative way to test flux is to use an array of patches. In testing flux with an array of transdermal miniature patches, formulations are prepared by mixing stock solutions of each of the mixture components of formulation in organic solvents (about 15 wt % solids), followed by a mixing process. The mixtures are then aliquoted onto arrays as 4-mm diameter drops and allowed to dry, leaving behind solid samples or “dots.” (i.e., mini-patches). The miniature patches in the arrays are then tested individually for flux through skin using a permeation array, whose principle of drug flux from a patch formulation through epidermis to a compartment of receptor medium is similar to that of Franz cells (an array of miniature cells). […] Receptor fluid is auto-sampled from each of the permeation wells at regular intervals and then measured by HPLC to determine the flux of the drug.

[3] = cited from earlier work

## CN1C(=O)CC(=O)N(c2ccccc2)c2cc(Cl)ccc21 [clobazam, 7-Chloro-1-methyl-5-phenyl-1,5-dihydro benzo[b][1,4]diazepine-2,4-dione]
[1]; in 4-allyl-2-ethoxyphenol
  solubility among various alcohols: good solubility
[1]; in Caprylocaproyl polyoxyl-8 glycerides and transcutol P
  solubility among various surfactants, polymers and oils: some solubility
[1]; in DCM, chloroform, DMA, DMI, DMSO and NMP
  solubility in solvents: good solubility
[1]; in methyl L-lactate, levulinic acid and ethyl levulinate
  solubility among various fatty acids and fatty acid esters: good solubility
[2]; 5:95 L100:B12 PIB adhesive with 20 wt % CROSPOVIDONE
  average clobazam base flux: 33.3 μg/(cm^2-h)
[2]; 35 wt % clobazam base in EVA40, EVA12 tie layer, PIB adhesive (5:95 L100:B12) with 12 wt % PVP
  flux: 5.4 μg/(cm^2 h)
[2]; 35 wt % clobazam base in EVA40, EVA12 tie layer, PIB adhesive (5:95 L100:B12) with 18 wt % PVP
  flux: 7.5 μg/(cm^2 h)
[2]; clobazam 35 wt % in EVA40 drug layer 4-7 mil, PIB adhesive 5 wt % HMW / 95 wt % LMW, 2-3 mil
  clobazam base average flux: 5.5 μg/cm^2-h
[2]; formulation with 30 wt % clobazam base and 15 wt % PVP
  flux: 6.3 μg/(cm^2 h)
[3]; water at 25° C.
  solubility in water: 70 microgram/ml
[3]; water
  water Solubility: 164 µg/mL (≈ 545 µM)
